Assay results taken from patent US4808727A, “Imidazolium hydrogen carbonates” (Hoffmann-LaRoche Inc., priority 1986, dated 1989).

Key:
Litomosoides carinii = experiment: filaricidal activity in cotton rats infected with Litomosoides carinii (dead adult filaria in pleural cavity); assay type: in vivo, Litomosoides carinii in cotton rats (Sigmodon hispidus); details: sc, 1008 h, s.c., infected cotton rats treated 14 weeks after infection, dissected 42 days after treatment, dosage at which 90% of worms are dead, Probit analysis
Description: (§1) The filaricidal activity of the compounds of formula III can be determined, for example, on cotton rats (Sigmodon hispidus) which have been infected with Litomosoides carinii. The infection with L. carinii is transmitted by the blood-sucking mite (Bdellonyssus bacoti) in which the development of the microfilaria to infectious larvae takes place. The cotton rats are infected by exposing them to bites of infected mites. Fourteen (14) weeks after the infection, groups of 2-4 animals are treated subcutaneously with the compound to be tested. Forty-two (42) days after treatment with the compound to be tested, the experimental animals are dissected, whereby the adult filaria are removed from the pleural cavity. Living and dead or encapsulated worms are separated from one another and weighed. The filaricidal activity is expressed as the percentage proportion of dead macrofilaria per treatment group. The ED90 is then determined by means of Probit analysis using the values from different dosage groups. The ED90 is that dosage at which 90% of the worms removed from the pleural cavity are dead. In the following Table, there are compiled the results which have been obtained in the previously described test with representative members of the class of compound defined by formula III. Moreover, the Table contains data concerning the acute toxicity of some of these compounds in mg/per kg in the case of single oral administration to mice.

[1] = acute toxicity, single oral administration to mice; details: mouse, in vivo, p.o.
Description: as §1, with “Moreover, the Table contains data concerning the acute toxicity of some of these compounds in mg/per kg in the case of single oral administration to mice.” left out

| Compound | ED90 (Litomosoides carinii) | LD50 [1] |
| --- | --- | --- |
| CN(C)c1ccc(C=Nn2cc[n+](N=Cc3ccc(N(C)C)cc3)c2-c2ccccc2)cc1.[Cl-] [Compound D, 1,3-bis[[p-(dimethylamino)benzylidene]amino]-2-phenylimidazolium chloride] | < 1 mg/kg | 1250 to 2500 mg/kg |
| CC(C)c1n(N=Cc2ccc(N(C)C)cc2)cc[n+]1N=Cc1ccc(N(C)C)cc1.[Cl-] [Compound B, 1,3-bis[[p-(dimethylamino)benzylidene]amino]-2-isopropyl-imidazolium chloride] | 0.5 mg/kg |  |
| CN(C)C=Cc1n(N=Cc2ccc(N(C)C)cc2)cc[n+]1N=Cc1ccc(N(C)C)cc1.[Cl-] [Compound A, 1,3-bis[[p-(dimethylamino)benzylidene]amino]-2-[2-(dimethylamino)vinyl]imidazolium chloride] | 1 mg/kg | 312 to 625 mg/kg |
| Cc1n(N=Cc2ccc(N(C)C)cc2)cc[n+]1N=Cc1ccc(N(C)C)cc1.[Cl-] [Compound C, 1,3-bis[[p-(dimethylamino)benzylidene]amino]-2-methylimidazolium chloride] | 0.85 mg/kg |  |
